# In patent US10774097B2, “Boron compounds as inhibitors of lipoxygenase and the lipoxygenase pathway, and preparation and use thereof” (UNIVERSITÄT LEIPZIG, priority 2015, dated 2020):
# pIC50: −log10 of the molar value. Like-named read-outs stand apart in the source and are kept apart here.
# Columns and labels:
# A375 [1] = experiment: Cytotoxicity MTT assay, A375; type: cell-based
# Protocol: (§1) In order to determine the cytotoxicity towards various cancer cell lines, MTT and crystal violet (CV) assays were carried out. The MTT essay takes place as specified by T. Mosmann [T. Mosmann, J. Immunol. Methods, 1983, 65, 55], and the CV test takes place as specified by D. A. Flick et al. [D. A. Flick, G. E. Gifford, J. Immunol. Methods, 1984, 68, 167].
# (§2) In these tests, the percentage of dead cells was analysed on the basis of the concentration of the inhibitors. The obtained IC50 value indicates the concentration of a particular inhibitor at which 50% of the analysed cells die off.
# (§3) The proportion of living cells was determined by the MTT assay (3-(4,5-dimethylthiazolyl-2)-2,5-diphenyltetrazoliumbromide) and the crystal violet (CV) assay. In the MTT assay, the presence of NADH and NADPH is established. These two compounds are characteristic metabolism products in a functioning respiratory chain. NADH and NADPH reduce the MTT dye, thus leading to a change in colour, which can be measured and is thus directly proportional to the number of living cells.
# (§4) Three skin cancer cell lines (A375, B16, B16F10) and three colon cancer cell lines (CT26CL25, HCT116, SW480) were analysed. Primary fibroblasts from human lung tissue (MRC-5) were used as an example of healthy cells and thus as a negative control.
# (§5) The top value for each cell represents the IC50 value in the MTT assay, and the bottom value represents the IC50 value in the CV assay (crystal violet).
# A375 [2] = experiment: Cytotoxicity crystal violet (CV) assay, A375; type: cell-based; settings: CV assay (bottom value)
# Protocol: as §1, §2
# (§6) Meanwhile, in the crystal violet assay, the crystal violet dye can only diffuse through the perforated cell membranes of dead cells. In this case, the number of dyed cells represents the number of dead cells.
# as §4, §5
# B16 [3] = experiment: Cytotoxicity MTT assay, B16; type: cell-based; settings: MTT assay (top value)
# Protocol: as §1, §2, §3, §4, §5
# B16 [4] = experiment: Cytotoxicity crystal violet (CV) assay, B16; type: cell-based; settings: CV assay (bottom value)
# Protocol: as §1, §2, §6, §4, §5
# CT26CL25 [5] = experiment: Cytotoxicity MTT assay, CT26CL25; type: cell-based; settings: MTT assay (top value)
# Protocol: as §1, §2, §3, §4, §5
# [6] = tested on: primary fibroblasts (MRC-5); experiment: Cytotoxicity MTT assay, MRC-5; type: cell-based, human
# Protocol: as §1, §2, §3, §4, §5
# HCT116 [7] = experiment: Cytotoxicity crystal violet (CV) assay, HCT116; type: cell-based; settings: CV assay (bottom value)
# Protocol: as §1, §2, §6, §4, §5
# SW480 [8] = experiment: Cytotoxicity crystal violet (CV) assay, SW480; type: cell-based; settings: CV assay (bottom value)
# Protocol: as §1, §2, §6, §4, §5
# [9] = Solubility tests in ethanol and DMSO; type: physicochemical; settings: solvent added until clear solution; for solubility: organic solvent or mixture, thermodynamic from solid
# Protocol: Solubility tests in ethanol and DMSO were carried out to determine the solubility. The amount of solvent required to obtain a clear solution was added to 4 mg of the compounds in an Eppendorf tube. The concentration of the solution was then determined on the basis of the mass of the compounds and the amount of solvent.
# HCT116 [10] = experiment: Cytotoxicity MTT assay, HCT116; type: cell-based; settings: MTT assay (top value)
# Protocol: as §1, §2, §3, §4, §5
# SW480 [11] = experiment: Cytotoxicity MTT assay, SW480; type: cell-based; settings: MTT assay (top value)
# Protocol: as §1, §2, §3, §4, §5
# CT26CL25 [12] = experiment: Cytotoxicity crystal violet (CV) assay, CT26CL25; type: cell-based; settings: CV assay (bottom value)
# Protocol: as §1, §2, §6, §4, §5
# 5-LOX = target: T1, 5-LOX (Homo sapiens, UniProt P09917); experiment: Inhibition test: 5-LOX activity in intact polymorphonuclear leukocytes (arachidonic acid conversion, HPLC); type: cell-based; settings: 5-LOX-FLAP enzyme system, 15 min at 37° C., read-out: IC50 value (at concentration)
# T1 construct: endogenous in cells; host or cells: intact polymorphonuclear leukocytes isolated from blood
# T1 sequence (P09917 1-674): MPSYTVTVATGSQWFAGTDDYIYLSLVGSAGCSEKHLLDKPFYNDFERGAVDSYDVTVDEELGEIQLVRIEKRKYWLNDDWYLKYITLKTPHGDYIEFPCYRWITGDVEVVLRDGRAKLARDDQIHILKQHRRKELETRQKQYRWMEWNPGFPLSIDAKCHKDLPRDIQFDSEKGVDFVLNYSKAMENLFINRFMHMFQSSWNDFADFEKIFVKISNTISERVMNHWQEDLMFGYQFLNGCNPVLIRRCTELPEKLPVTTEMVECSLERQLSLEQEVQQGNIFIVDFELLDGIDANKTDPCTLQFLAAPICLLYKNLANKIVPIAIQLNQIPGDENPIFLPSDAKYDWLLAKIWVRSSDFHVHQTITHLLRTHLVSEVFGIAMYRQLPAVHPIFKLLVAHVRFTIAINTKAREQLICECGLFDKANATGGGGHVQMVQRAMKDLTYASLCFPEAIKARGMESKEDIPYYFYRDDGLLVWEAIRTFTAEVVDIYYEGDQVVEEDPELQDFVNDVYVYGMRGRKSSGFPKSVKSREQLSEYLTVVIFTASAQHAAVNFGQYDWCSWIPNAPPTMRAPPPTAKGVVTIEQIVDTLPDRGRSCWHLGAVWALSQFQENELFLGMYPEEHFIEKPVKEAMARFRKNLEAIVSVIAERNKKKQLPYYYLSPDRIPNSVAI
# Protocol: The 5-LOX activity of the cells was established on the basis of the concentration of inhibitor.
# In this process, intact polymorphonuclear leukocytes were isolated from blood as specified in the known literature [C. Greiner et al., British Journal of Pharmacology, 2011, 164, 781-793]. The cells were grown on cell sheets until a confluence of 95% was reached, i.e. 95% of the cell sheets was covered with cells. Each cell sheet was then treated with 10 μl of a solution of the inhibitor at concentrations of 0.05 μM, 0.1 μM, 0.5 μM, 1 μM, 5 μM, 10 μM, 50 μM and 100 μM at 37° C. for 15 minutes. Each cell sheet was then treated with an arachidonic acid solution for 10 minutes. 10 μl of a 1:1 mixture of 2 mM of arachidonic acid and 250 μM of A23187 Ca^2+-ionophore solution in ethanol was used for this.
# Conversion of a small amount of arachidonic acid is evidence of a strong inhibiting effect.
# [13] = tested on: various cancer cell lines; experiment: Cytotoxicity tests on cancer cell lines (summary in words); settings: comparison with phenyl-based compounds
# Protocol: as §1, §2, §4
# [14] = MTT assay (top value), read-out: IC50 A375
Compound,pIC50 (A375 [2]),pIC50 (B16 [3]),pIC50 (B16 [4]),pIC50 (CT26CL25 [5]),pIC50 (HCT116 [7]),pIC50 (SW480 [8]),Solubility in DMSO ([9]; DMSO),Solubility in EtOH ([9]; ethanol),pIC50 (HCT116 [10]),pIC50 (SW480 [11]),pIC50 (CT26CL25 [12]),pIC50 (5-LOX),cytotoxicity towards cancer cell lines (in words) [13],pIC50 (A375 [1]; [14]),further results
"1-(7-Thiomethylquinolin-2-yl-1,7-dicarba-closo-dodecaboran(12)yl)-hexan-1-ol [Embodiment 5]",4.52,4.30,< 4.30,4.34,< 4.30,< 4.30,953.9 mM,238.5 mM,4.35,4.48,4.30,5.60,–,–,pIC50 (A375 [1]; read-out: IC50 value for A375 cancer cells): 5.10; selectiveness between healthy cells and cancer cells ([6]; IC50 for healthy cells (MRC-5) divided by IC50 for cancer cells (A375)): 10.2; pIC50 ([6]; read-out: IC50 value for healthy cells (MRC-5)): 4.09
"1-((7-Quinolin-2-ylmethoxy)-1,7-dicarba-closo-dodecaboran(12)yl)-hexan-1-ol [Embodiment 3]",–,–,–,–,–,–,208.3 mM,86.8 mM,–,–,–,5.85,considerably higher cytotoxicity,–,–
"1-(Quinolin-2-ylmethoxy)-1,7-dicarba-closo-dodecaborane(12) [Comparative Example 1]",< 4.30,4.32,4.32,< 4.30,–,< 4.30,432 mM,72 mM,< 4.30,< 4.30,< 4.30,5.64,insufficient cytotoxicity,4.30,–
"1-(Quinolin-2-ylmethyl)thio-1,7-dicarba-closo-dodecaborane(12) [Comparative Example 2]",4.46,< 4.30,< 4.30,< 4.30,< 4.30,< 4.30,600 mM,67 mM,< 4.30,–,< 4.30,5.24,insufficient cytotoxicity,4.52,–
"1-Quinolin-2-ylmethoxy-1,12-dicarba-closo-dodecaborane(12) [Comparative Example 3]",4.57,4.34,4.34,4.46,< 4.30,–,208.3 mM,86.8 mM,–,4.54,4.30,5.85,–,5.06,"pIC50 ([6]; single value in cell, unit inferred, top value = MTT assay, read-out: IC50 MRC-5): < 4.00"
"CCCCCC(O)c1cccc(OCc2ccc3ccccc3n2)c1 (stereo not drawn) [Rev-5901, reference compound]",–,–,–,4.55,–,–,–,–,–,–,< 4.30,–,–,–,"pIC50 (A375 [1]; Homo sapiens, A-375, MTT assay (top value), read-out: IC50 A375): 4.60; pIC50 (A375 [1]; Homo sapiens, A-375, depending on the method of analysis used (MTT/CV), read-out: IC50 values towards melanoma cancer cell line A375): 4.30 to 4.60; pIC50 (A375 [2]; Homo sapiens, A-375): 4.33; pIC50 (B16 [3]; Mus musculus, B16): 4.56; pIC50 (B16 [4]; Mus musculus, B16): 4.35; pIC50 ([6]; Homo sapiens, MRC5, MTT assay (top value), healthy cells, read-out: IC50 MRC-5): 4.15; pIC50 ([6]; Homo sapiens, MRC5, read-out: IC50 value for healthy cells (MRC-5)): 4.15; pIC50 (HCT116 [7]; Homo sapiens, HCT-116): 4.30; pIC50 (SW480 [8]; Homo sapiens, SW480): < 4.30; solubility ([9]; DMSO, read-out: Solubility in DMSO): 29.8 mM; solubility ([9]; ethanol, read-out: Solubility in EtOH): 29.7 mM; pIC50 (HCT116 [10]; Homo sapiens, HCT-116): 4.30; pIC50 (SW480 [11]; Homo sapiens, SW480): 4.30"
